The test system of one test is yeast lacking Yfh1p. Nature of the test: Yeast-based screening assay (WST-1 tetrazolium dye reduction). Type of test: cell-based. The conditions noted are these: glycerol medium, 72 h, OD450, single dose 50 uM, activity threshold >1.32 fold increase in absorbance. How it is done:
The aim of this assay is to identify compounds that can improve mitochondrial function in yeast lacking Yfh1p grown in a non-fermentable growth medium. The yeast Yfh1p expression construct used in this study has a galactose-inducible, glucose-repressible promoter driving Yfh1p production. Yfh1p is expressed when yeast are grown in the presence of galactose and inhibited when they are grown in the presence of dextrose. Growing the cells in the presence of dextrose not only turns off the expression of Yfh1p, but also leads to the depletion of Yfh1p in the cells. Transferring the Yfh1p-depleted cells into a non-fermentable, glycerol-based medium dictates that the yeast must use an oxidative pathway. […] Cleavage of the tetrazolium salt to formazan is accompanied by an increase in absorbance at 450 nm.
Compounds in the single dose assay were evaluated on the basis of Fold Induction compared to yeast only, and those in the dose response assay on percent activation, i.e. percent induction of tetrazolium dye reduction in yeast grown in a non-fermentable growth medium. Percent activation was calculated using the optical density in control wells with cells treated with positive control compound (25 uM methyl 4-(1, 2, 4, 5-tetraazin-3-yl) phenyl ether (MLSMR External ID: MLS000550612; PubChem SID: 14718875)) as full induction of tetrazolium dye reduction (100% activation), and wells with cells grown in medium without methyl 4-(1, 2, 4, 5-tetraazin-3-yl) phenyl ether as an indicator of 0% activation. Library compounds were screened at 50 uM. From the 50 uM single dose assay, 1250 compounds with significant tetrazolium dye reduction were selected for confirmatory dose response assay. These compounds were screened in a 10-point dilution series ranging from 0.01 to 100 uM.
The following screening protocol was followed. Yeast cells containing an inducible/repressible promoter for Yfh1p expression were cultured in induction medium (Yfh1 on) with Galactose as the carbon source, and then shifted to repression medium (Yfh1 off) with Dextrose as the carbon source (for 24 hours) to allow Yfh1 protein to decay. The cells were then incubated for 24 h in respiration-only medium (Yfh1 off) with Glycerol as the carbon source to allow cells to equilibrate, and then plated in 384 well plates in respiration-only medium (Yfh1 off) with glycerol as carbon source, in the presence of Tetrazolium dye (WST-1) for 72 hours.
Preparation of Assay • 1. Cells were streaked out on a YPGal agar plate and grown inverted for 3 days at 30 C. • 2. A colony was selected and 10 mL of YPGal medium inoculated and grown over night at 30 C with shaking. • 3. The cells were counted on a coulter counter, centrifuged at 1400 g for 5 min in dextrose (CSMM-D) medium, washed twice to remove all galactose, and resuspended in CSMM-D medium at a cell density of 2 to the power of 5 cells/mL. • 4. Frozen stocks were prepared at this point, in dextrose medium. For these dextrose stock solutions, enough culture was grown in dextrose media over night with shaking at 30 C, to get a cell density of ˜2 to the power of 7 cells/mL. The cells were centrifuged at 1400 g for 5 min and the pellet resuspended in glycerol freezing medium at a cell density of 2 to the power of 8 cells/mL. • 5. The day before the screen, frozen culture was thawed at room temperature and resuspended in glycerol (CSMM-G) medium. • 6. The culture was grown over night at 30 C with shaking and the cells counted and diluted in CSMM-G medium for a final cell density of 4 to the power of 6 cells/mL. • 7. Methyl 4-(1, 2, 4, 5-tetraazin-3-yl) phenyl ether (positive control), CSMM-G medium alone (negative control) and compounds were plated with DMSO at 200× concentration (final concentrations: methyl 4-(1, 2, 4, 5-tetraazin-3-yl) phenyl ether 25 uM, compounds 50 uM, DMSO 0.5%) in 384-well plates: 125 nL/well. For the dose response assay, compounds were plated in a 10-point dilution series ranging from 0.01 to 100 uM, at 1% DMSO. • 8. […]
For orientation: Tetrazolium assays rely on reduction of a dye to a coloured formazan, in cell work by metabolically active cells.

The subject of a further test is I154F FA cells. As to the kind of experiment: I154F frataxin point-mutation model, rescue from FAC and/or BSO. The class given is cell-based, murine. The source says: 2. Preliminary testing in the I154F frataxin point-mutation model determines whether test compounds can rescue I154F FA cells from lethal concentrations of FAC and/or BSO. Among the mammalian-cell models that have, or recapitulate, the genetic defects underlying FA, by far the most robust (and best validated) is the I154F murine frataxin point-mutation model developed by Puccio and colleagues (Calmels, N. et al.), the first cellular model based on frataxin missense mutations that reproduces spontaneously the defects associated with Friedreich ataxia (PLoS One 4, e6379 (2009)). […] This model is also extremely stable, with phenotypes unchanged after months of continuous culture. In contrast, the mutations in available primary human FA fibroblasts are GAA repeat expansions in the first intron of the FXN gene; occasional cells in which these expansions contract have a growth advantage and take over the culture, diluting the phenotype and increasing variance in various measures of compound efficacy.
In another screen, testing was conducted in the I154F point-mutation model as described above, to determine whether test compounds could rescue I154F FA cells from lethal or sublethal concentrations of FAC and/or BSO. Effective in this screen were the following compounds: N-[(5-chloro-8-hydroxyquinolin-7-yl)-thiophen-2-ylmethyl]-3-phenylpropanamide, N-[(5-chloro-8-hydroxyquinolin-7-yl)-thiophen-2-ylmethyl]pentanamide, N-[(5-chloro-8-hydroxyquinolin-7-yl)-furan-2-ylmethyl]-3-phenylpropanamide, N-[(5-chloro-8-hydroxyquinolin-7-yl)-furan-2-ylmethyl]propanamide, N-[(5-chloro-8-hydroxyquinolin-7-yl)-furan-2-ylmethyl]pentanamide, N-[(5-chloro-8-hydroxyquinolin-7-yl)-tolyl]-3-phenylpropanamide, N-[(5-chloro-8-hydroxyquinolin-7-yl)-(3-methoxyphenyl)methyl]-3-phenylpropanamide, N-[(5-chloro-8-hydroxyquinolin-7-yl)-(4-dimethylaminophenyl)methyl]-3-phenylpropanamide, N-[(5-chloro-8-hydroxyquinolin-7-yl)-(4-chlorophenyl)methyl]-3-phenylpropanamide, N-[(5-chloro-8-hydroxyquinolin-7-yl)-(3-chlorophenyl)methyl]-3-phenylpropanamide, N-[(5-chloro-8-hydroxyquinolin-7-yl)-(2-chlorophenyl)methyl]-3-phenylpropanamide, N-[(5-chloro-8-hydroxyquinolin-7-yl)-(3,4-dimethoxyphenyl)methyl]-3-phenylpropanamide, N-[(5-chloro-8-hydroxyquinolin-7-yl)-(2,4-dimethoxyphenyl)methyl]-3-phenylpropanamide, N-[(5-chloro-8-hydroxyquinolin-7-yl)-(3,4,5-trimethoxyphenyl)methyl]-3-phenylpropanamide, N-[(5-chloro-8-hydroxyquinolin-7-yl)-(2-bromophenyl)methyl]-3-phenylpropanamide, N-[(5-chloro-8-hydroxyquinolin-7-yl)-p-tolyl-methyl]-3-phenylpropanamide, N-[(5-chloro-8-hydroxyquinolin-7-yl)-(2-hydroxyphenyl)methyl]-3-phenylpropanamide (1a-18), and N-[(5-chloro-8-hydroxyquinolin-7-yl)-(4-methoxyphenyl)methyl]-3-phenylpropanamide.

As to `CCC(=O)NC(c1ccc(OC)cc1)c1cc(Cl)c2cccnc2c1O` (stereo not shown) [N-[(5-chloro-8-hydroxyquinolin-7-yl)-(4-methoxyphenyl)methyl]propanamide], in the test on yeast lacking Yfh1p, the “active in the screen (tetrazolium dye reduction)” value is recorded as “active”.

Regarding `CN(C)c1ccc(C(NC(=O)CCc2ccccc2)c2cc(Cl)c3cccnc3c2O)cc1` (stereo not shown) [N-[(5-chloro-8-hydroxyquinolin-7-yl)-(4-dimethylaminophenyl)methyl]-3-phenylpropanamide], in the test with I154F FA cells, the “rescue of I154F FA cells from lethal or sublethal concentrations of FAC and/or BSO” value (from here on “rescue of I154F FA cells”) was “Effective”. For `O=C(CCc1ccccc1)NC(c1ccc(Cl)cc1)c1cc(Cl)c2cccnc2c1O` (stereo not shown) [N-[(5-chloro-8-hydroxyquinolin-7-yl)-(4-chlorophenyl)methyl]-3-phenylpropanamide], the “rescue of I154F FA cells” value in the test on I154F FA cells is given as “Effective”. On the same count and under the same terms, then `COc1cccc(C(NC(=O)CCc2ccccc2)c2cc(Cl)c3cccnc3c2O)c1` (stereo not shown) [N-[(5-chloro-8-hydroxyquinolin-7-yl)-(3-methoxyphenyl)methyl]-3-phenylpropanamide], with “Effective”. As to `CCC(=O)NC(c1cccs1)c1cc([N+](=O)[O-])c2cccnc2c1O` (stereo not shown) [N-[(8-hydroxy-5-nitro-quinolin-7-yl)-thiophen-2-yl-methyl]-propionamide], the “active in the screen (tetrazolium dye reduction)” value in the test with yeast lacking Yfh1p was “active”.

For the compound `O=C(CCc1ccccc1)NC(c1ccccc1O)c1cc(Cl)c2cccnc2c1O` (stereo not shown) [N-[(5-chloro-8-hydroxyquinolin-7-yl)-(2-hydroxyphenyl)methyl]-3-phenylpropanamide], the “rescue of I154F FA cells” value in the test on I154F FA cells is “Effective”.

Turning to `COc1ccc(C(NC(=O)CCc2ccccc2)c2cc(Cl)c3cccnc3c2O)cc1OC` (stereo not shown) [N-[(5-chloro-8-hydroxyquinolin-7-yl)-(3,4-dimethoxyphenyl)methyl]-3-phenylpropanamide], the “rescue of I154F FA cells” value in the test with I154F FA cells was “Effective”. Turning to `CCCC(=O)NC(c1cccs1)c1cc([N+](=O)[O-])c2cccnc2c1O` (stereo not shown) [N-[(8-hydroxy-5-nitroquinolin-7-yl)-thiophen-2-ylmethyl]butanamide], in the test on yeast lacking Yfh1p, the “active in the screen (tetrazolium dye reduction)” value is reported as “active”. Take `CCCCC(=O)NC(c1ccccc1OC)c1ccc2cccnc2c1O` (stereo not shown) [N-[(8-hydroxyquinolin-7-yl)-(2-methoxyphenyl)methyl]pentanamide]: the “active in the screen (tetrazolium dye reduction)” value in the test on yeast lacking Yfh1p is given as “active”. Take `O=C(CCc1ccccc1)NC(c1ccccc1Br)c1cc(Cl)c2cccnc2c1O` (stereo not shown) [N-[(5-chloro-8-hydroxyquinolin-7-yl)-(2-bromophenyl)methyl]-3-phenylpropanamide]: in the test on I154F FA cells, the “rescue of I154F FA cells” value is “Effective”. Consider `CC(=O)NC(c1cccs1)c1cc([N+](=O)[O-])c2cccnc2c1O` (stereo not shown) [N-[(8-hydroxy-5-nitro-quinolin-7-yl)-thiophen-2-yl-methyl]-acetamide], for which, in the test with yeast lacking Yfh1p, the “active in the screen (tetrazolium dye reduction)” value is reported as “active”. `CCCC(=O)NC(c1ccco1)c1cc([N+](=O)[O-])c2cccnc2c1O` (stereo not shown) [N-[2-furyl(8-hydroxy-5-nitro-7-quinolinyl)methyl]butanamide]: the “active in the screen (tetrazolium dye reduction)” value in the test with yeast lacking Yfh1p is given as “active”.

As to `Cc1ccc(C(NC(=O)CCc2ccccc2)c2cc(Cl)c3cccnc3c2O)cc1` (stereo not shown) [N-[(5-chloro-8-hydroxyquinolin-7-yl)-p-tolyl-methyl]-3-phenylpropanamide], the “rescue of I154F FA cells” value with I154F FA cells was “Effective”. As for `COc1cc(C(NC(=O)CCc2ccccc2)c2cc(Cl)c3cccnc3c2O)cc(OC)c1OC` (stereo not shown) [N-[(5-chloro-8-hydroxyquinolin-7-yl)-(3,4,5-trimethoxyphenyl)methyl]-3-phenylpropanamide], the “rescue of I154F FA cells” value with I154F FA cells is on record as “Effective”. Consider `COc1ccc(C(NC(=O)CCc2ccccc2)c2cc(Cl)c3cccnc3c2O)cc1` (stereo not shown) [N-[(5-chloro-8-hydroxyquinolin-7-yl)-(4-methoxyphenyl)methyl]-3-phenylpropanamide], for which the “rescue of I154F FA cells” value in the test on I154F FA cells is reported as “Effective”. On to `O=C(CCc1ccccc1)NC(c1ccccc1Cl)c1cc(Cl)c2cccnc2c1O` (stereo not shown) [N-[(5-chloro-8-hydroxyquinolin-7-yl)-(2-chlorophenyl)methyl]-3-phenylpropanamide], for which the “rescue of I154F FA cells” value in the test with I154F FA cells is “Effective”. On the same count and under the same terms, then `COc1ccc(C(NC(=O)CCc2ccccc2)c2cc(Cl)c3cccnc3c2O)c(OC)c1` (stereo not shown) [N-[(5-chloro-8-hydroxyquinolin-7-yl)-(2,4-dimethoxyphenyl)methyl]-3-phenylpropanamide], with “Effective”. Take `CCC(=O)NC(c1ccco1)c1cc(Cl)c2cccnc2c1O` (stereo not shown) [N-[(5-chloro-8-hydroxyquinolin-7-yl)-furan-2-ylmethyl]propanamide]: in the test on I154F FA cells, the “rescue of I154F FA cells” value is recorded as “Effective”. Same read-out and setting: then `O=C(CCc1ccccc1)NC(c1ccco1)c1cc(Cl)c2cccnc2c1O` (stereo not shown) [N-[(5-chloro-8-hydroxyquinolin-7-yl)-furan-2-ylmethyl]-3-phenylpropanamide], with “Effective”; and `O=C(CCc1ccccc1)NC(c1cccc(Cl)c1)c1cc(Cl)c2cccnc2c1O` (stereo not shown) [N-[(5-chloro-8-hydroxyquinolin-7-yl)-(3-chlorophenyl)methyl]-3-phenylpropanamide], with “Effective”. In the case of `CCC(=O)NC(c1ccc(C)cc1)c1cc([N+](=O)[O-])c2cccnc2c1O` (stereo not shown) [N-[(8-Hydroxy-5-nitro-quinolin-7-yl)-p-tolyl-methyl]-propionamide], the “active in the screen (tetrazolium dye reduction)” value in the test on yeast lacking Yfh1p is recorded as “active”. Regarding `CCCCC(=O)NC(c1ccco1)c1cc(Cl)c2cccnc2c1O` (stereo not shown) [N-[(5-chloro-8-hydroxyquinolin-7-yl)-furan-2-ylmethyl]pentanamide], in the test with I154F FA cells, the “rescue of I154F FA cells” value is listed as “Effective”.
